According to US20220218614A1, “IONIZABLE CATIONIC LIPIDS AND LIPID NANOPARTICLES, AND METHODS OF SYNTHESIS AND USE THEREOF” (Tidal Therapeutics, Inc., priority 2020, published 2022):
“Also recorded” adds a separate entry of the source.

Key:
CD69 = CD69 upregulation on T cells after LNP transfection (FACS staining); assay type: cell-based, human; conditions: approximately 24 hr after targeted Lipid 8 LNPs at approximately 2.5 μg/mL mRNA
Procedure: (§1) LNPs were prepared using the mixing process described in Example 6, the buffer exchange process described below in Example 21. Using methods similar to Example 12, hSP34 and TRX2 Fab-lipid conjugates and a non-T cell specific anti-HER2 lipid-conjugate (Nellis D F, Ekstrom D L, Kirpotin D B, Zhu J, Andersson R, Broadt T L, Ouellette T F, Perkins S C, Roach J M, Drummond D C, Hong K, Marks J D, Park J W and Giardina S L (2005) Preclinical manufacture of an anti-HER2 scFv-PEG-DSPE, liposome-inserting conjugate. 1. Gram-scale production and purification. Biotechnol Prog 21:205-220) were post-inserted at various densities (SP34 0.25-17 g/mol; TRX2 0.25-9 g/mol; SP34+TRX2 0.25-9 g/mol each conjugate; anti-HER2 17 g/mol) into LNPs containing Lipid 8 and anti-CD20 targeting CART mRNA. Transfections were performed with human CD3 T cells at approximately 2.5 μg/mL mRNA for approximately 24 hr. For FACS analysis T cells were stained with M1 antibody (Sigma, F3040) that bind a N-terminus FLAG-tag variant sequence on the TTR-023 CAR (sequence provided below) in addition to staining for CD69 (Biolegend, 310930) and CD4 (Biolegend, 344648) to differentiate CD8 from CD4 cells.
LNPs were prepared using the mixing process described in Example 6, the buffer exchange process described in Example 21. […]

human CD3 T cells = test: Transfection of human CD3 T cells (CD8 and CD4 subsets) with Fab/Nb-targeted LNPs; assay type: cell-based; conditions: targeted Lipid 8 LNP (Lipid 5 in Example 43), GFP mRNA approximately 2.5 μg/mL, approximately 24 hr
Procedure: as §1
LNPs were prepared using the mixing process described in Example 6, the buffer exchange process described in Example 21. Using methods similar to Example 12, hSP34, TRX2, and Ibalizumab Fab-lipid conjugates and a non-T cell specific anti-HER2 lipid-conjugate were post-inserted at various densities (specified in FIGS. 20A and 20B into LNPs containing Lipid 8 and Cy5/GFP mRNA. Transfections were performed with human CD3 T cells at approximately 2.5 μg/mL mRNA for approximately 24 hr and stained for CD69 (Biolegend, 310930) and CD4 (Biolegend, 344648) to differentiate CD8 from CD4 cells by FACS analysis.
LNPs were prepared using the mixing process described in Example 6, the buffer exchange process described in Example 21. […] Levels of transfection of CD3 T cells was measured by flow cytometry. […]

Ibalizumab: anti-CD4 Fab from Ibalizumab sequence, SEQ ID NO: 10 and 11
CD69 upregulation on CD8 and CD4 T cells, in words (CD69): much lower levels of CD69
% GFP transfection and GFP expression (MFI) of CD8 and CD4 T cells, in words (human CD3 T cells): higher % transfection (FIG. 71A) and GFP expression levels; also recorded: highly specific LNP transfection and protein translation of CD4+ T cells versus CD8+ T cells; also recorded: increase in transfection efficiency going from 2K PEG to 3.4K PEG; also recorded: high binding and transfection of CD4 T cells while displaying minimal off-target binding and transfection of CD8 T cells
